Results on 2 molecules are retold here after PMC10644342, “Improved Antibacterial Activity of 1,3,4-Oxadiazole-Based Compounds That Restrict Staphylococcus aureus Growth Independent of LtaS Function” (ACS Infectious Diseases, 2023).

≈ marks a conversion by molar mass, not a printed value.

In data set [1] the test system is S. aureus. Description: Checkerboard MIC analysis with antistaphylococcal antibiotics (FIC index). In kind it is cell-based. Conditions: lowest possible value. Here is the method:
Antibiotic combination 1771 Compound 13
Figure S1. Checkerboard analysis of 1771 and compound 13 in combination with clinically relevant antibiotics. Checkerboard analysis was repeated twice for each antibiotic combination, and the mean bacterial growth (OD 600nm) plotted as a heat map with 1771/compound 13 concentration of the y-axis and test antibiotic concentration on the x axis.
FIC indexes were calculated for each combination and the lowest possible value presented. […]
Supplementary Materials and Methods
Synergistic activity with clinically relevant antibiotics
The synergistic ability of 1771 and 13 was achieved using the chequerboard micro-broth dilution method. Antibiotic partners tested included: oxacillin, daptomycin, vancomycin, gentamicin, and linezolid with starting concentrations of 256 µg/ml, 8 µg/ml, 8 µg/ml, 4 µg/ml, and 8 µg/ml respectively. Overnight cultures were sub-cultured 1:200 in fresh MHB and grown to optical density of OD600nm of 0.5-0.6 and prepared according to the MIC analysis. Following an 18 h incubation at 37 °C the sum of the fractional inhibitory […]
using the equation ΣFIC = FICA +FICB = (MICA in combination with B/MICA) + (MICB in combination with A/MICB). The resulting value was interpreted according to the following rules: synergistic (FIC ≤ 0.5), additive (FIC >0.5, <1) or indifferent (FIC ≥ 1 <4). […]

For data set [2], the system named is erythrocytes. Description: Erythrocyte toxicity (hemolysis) assay. In kind it is cell-based, human. Conditions: concentrations as high as 256 μg/mL, 1 h, 37 °C. Here is the method: Consent was collected from three healthy volunteers prior to blood collection and in accordance with the recommendations of the University of Bath, Research Ethics Approval Committee for Health Blood (EP 18/19108). Blood was collected by venepuncture and drawn directly into K2-EDTA-coated Vacutainer tubes (BD Biosciences) to prevent coagulation. The blood was then pelleted at 500g for 10 min at 4 °C, and the plasma layer was removed. The remaining hematocrit was resuspended to the original volume in a sterile saline solution. This procedure was repeated three times and finally resuspended in sterile PBS and diluted to 2% (v/v). One hundred microlitres of the resulting blood suspension were aliquoted in a 96-well microtire plate. An equal volume of either 1771 or 13 (diluted in PBS) was then added at a concentration range of 256–2 μg/mL and incubated for 1 h at 37 °C. Blood incubated with PBS served as a negative control, and total hemolysis (positive control) was provided by incubating the cells in 2% (v/v) Triton X-100. Following incubation, the 96-well microtire plate was pelleted at 500g for 5 min, and 100 μL of supernatant was transferred into a new plate. Absorbance at abs404nm was measured using a Sunrise plate reader, and percentage hemolysis was calculated according to controls.

For data set [3], the system named is B. subtilis (W168). In words: MIC, broth microdilution (CLSI). In kind it is cell-based. Conditions: Bacillus subtilis. The procedure: B. subtilis, staphylococcal, and enterococcal strains were grown in Mueller Hinton broth (MHB), while streptococcal strains were grown in MHB supplemented with 5% laked horse blood. All strains were grown for 18 h at 37 °C. The overnight cultures were subsequently subcultured 1:200 and grown to the exponential phase (OD600nm = 0.5–0.6) in fresh broth. 1771 and its derivatives 9–14 were reconstituted in DMSO and further diluted by performing a 1:2 serial dilution ranging between 256 and 0.125 μg/mL in a 96-well microtiter plate. One hundred microliters of 0.5 McFarland standardized inoculum (approximately equal to 5 × 10^5 cfu) were then dispensed into each well in the 96-well microtiter plate. The plate was incubated for 18 h at 37 °C.

Data set [4] has as its system HepG2 human liver cancer cells. In words: HepG2 liver cell toxicity assay (MTT). In kind it is cell-based. Conditions: for IC50: Homo sapiens, 24 h incubation, MTT, concentration responsible for 50% HepG2 cell death. Here is the method:
HepG2 human liver cancer cells (ECACC: Cat no. 85011430) were grown in Dulbecco’s Modified Eagle’s Medium (DMEM; with 4.5 g/L glucose) supplemented with 10% (v/v) fetal bovine serum, 1% (v/v) minimal essential media, and 0.2% (v/v) penicillin/streptomycin/L-glutamine solution. Cells were then seeded at a concentration of 10,000 cells per well and allowed to attach and grow for 18 h. Following this, the medium was aspirated away and replaced with a medium containing a range of concentrations of 1771 and compound 13, and the cells were grown for a further 24 h. After this, cell viability was assessed using the MTT (3-[4,5-dimethylthiazol-2-yl]-2,5-diphenyltetrazolium bromide) assay. 1771 or 13 containing growth media was aspirated away and replaced with 100 μL of 1 mg/mL MTT (in growth media) and incubated for 50 min at 37 °C. Subsequently, this solution was removed, and 150 μL of isopropanol was added to the cells and allowed to incubate at RT with gentle rocking on an orbital shaker. Absorbance at abs595nm was recorded using a Sunrise plate reader, and the % cell viability was calculated compared to a no-compound control.

For data set [5], the system named is LTA. In words: LTA quantification by Western blot. In kind it is cell-based, Staphylococcus aureus. Conditions: strain LAC, 1× and 4× the MIC. Here is the method:
Overnight cultures of S. aureus strains were diluted 1:200 in fresh TSB and grown to an optical density of OD600nm 0.3. […] Vancomycin and daptomycin at 1× and 4× MIC were also included as control antibiotics. Cells were then normalized to have 10 mL of OD600nm 0.6, pelleted at 4000 rpm, and resuspended in 300 μL of PBS containing 200 μg/mL lysostaphin. This suspension was then incubated at 37 °C for 45 min to allow digestion of the cell wall to occur. One hundred microlitres of 4× SDS sample buffer were then added, and the mixture was boiled at 95 °C for 20 min. The insoluble material was then removed by pelleting at 16,000 rpm for 10 min. The supernatant containing LTA was then subjected to SDS-PAGE on a 4–20% Tris-glycine gel (Bio-Rad). The gel was transferred onto a PVDF membrane using a Trans-Blot Turbo Transfer System (Bio-Rad). The membrane was blocked overnight in TBST containing 5% semi-skimmed milk before being incubated with a mouse anti-LTA antibody (Hycult; HM2048; 1:2000 dilution) followed by a goat antimouse-HRP secondary antibody (Proteintech; SA00001; 1:2000 dilution) before being visualized using an Amersham-ECL kit (Cytiva).
For orientation: A western blot detects proteins with antibodies after separation by electrophoresis.

A word on the MIC: it is the least concentration at which growth counts as inhibited. What is called IC50 is the midpoint of a concentration-inhibition curve. Higher therefore signals weaker potency. As for `O=C(COC(=O)Cc1coc2ccc3ccccc3c12)Nc1nnc(-c2ccccc2)o1` [Compound 1771, 2-Oxo-2-((5-phenyl-1,3,4-oxadiazol-2-yl)amino)ethyl 2-(Naphtho[2,1-b]furan-1-yl)acetate, reference compound], the FIC index is 0.625 in data set [1] (combination with daptomycin); 0.375 in data set [1] (combination with gentamicin); 1 in data set [1] (combination with linezolid); 0.75 in data set [1] (combination with oxacillin); 1 in data set [1] (combination with vancomycin). The erythrocyte lysis result in data set [2] is on record as “neither caused any lysis”. Further, the minimum inhibitory concentration (MIC) in data set [3] was in the range of 4 to 8 µg/mL (≈ 9.36 to 18.7 µM). The “selectivity index (IC50/MIC50)” value in data set [4] (HepG2 IC50 / S. aureus MIC50) was found to be 3.08. The molecule further gave an IC50 in data set [4] of 24.7 µg/mL (≈ 57.8 µM). Moreover, in data set [5], the “LTA signal by Western blot” value is “reduction in LTA abundance”.

Regarding `O=C(COC(=O)Cc1coc2ccc3ccccc3c12)Nc1nnc(-c2ccc(S(F)(F)(F)(F)F)cc2)o1` [Compound 13, 2-Oxo-2-((5-(4-(pentafluoro-l6-sulfaneyl)phenyl)-1,3,4-oxadiazol-2-yl)amino)ethyl 2-(Naphtho[2,1-b]furan-1-yl)acetate], the FIC index in data set [1] (combination with daptomycin) is recorded as 0.75; in data set [1] (combination with gentamicin) it was 0.75; in data set [1] (combination with linezolid), 0.515; in data set [1] (combination with oxacillin), 0.75; in data set [1] (combination with vancomycin) it was 1. Moreover, in data set [2], the erythrocyte lysis result was “neither caused any lysis”. In data set [3], this molecule gave an MIC of 0.5 to 1 µg/mL (≈ 0.903 to 1.81 µM). In data set [4], this molecule yielded an IC50 of 27.3 µg/mL (≈ 49.3 µM). For the same molecule, the “LTA signal by Western blot” value in data set [5] is given as “reduction in LTA abundance”.
